In patent US20240270771A1, “Compound containing phosphate group, pharmaceutical composition containing same, preparation method therefor and use thereof” (SHANGHAI RAISING PHARMACEUTICAL CO., LTD., priority 2021, published 2024):

How the values were obtained:
[1] = test system: Aβ40; assay: Aβ40 content in culture supernatant of HEK293APP/sw overexpressing cells (ELISA kit); assay type: cell-based; details: compound 400 μM, 24 hours, adjusted by total protein concentration, blank control 127.81
Procedure: (§1) BCA Protein Assay Kit was purchased from Beyotime, Aβ40 and Aβ42 detection kits were purchased from Wako, and cell culture related reagents were purchased from Gibco.
(§2) HEK293APP/sw overexpressing cells were cultured in DMEM medium containing 10% FBS, 100 μg/mL G418 (Geneticin) and 1×Penicillin-Streptomycin in 48-well plates. A 4 mM compound stock solution (prepared by dissolving the compound in DMEM culture medium) was filtered through a 0.22 μm sterile filter and stored at −20° C. for subsequent use. At 70% cell density, 40 μL of the compound test solution was added to each well to reach a final concentration of 400 μM, and the plate was incubated for 24 hours.
(§3) The supernatant of the culture medium was collected. The BCA reagent was added to a part of the supernatant, after incubating at room temperature for 30 min, the absorbance value (i.e., OD value) of each well was determined by a microplate reader at 570 nm. The total protein concentration was calculated according to a protein standard curve. Meanwhile, the other part of the supernatant (100 μL) was added to a coated 96-well plate and incubated overnight at 4° C., after the solution was removed and the reagents were washed, HRP (horseradish peroxidase)-labeled antibody was added and incubated at 4° C. for 2 hours. After the reagents were removed and washed, a TMB chromogenic solution was added, the plate was incubated at room temperature for 30 min, and then a stop solution was added to stop the reaction. The absorbance value (i.e., OD value) of each well was measured by a microplate reader at 450 nm. The concentrations of Aβ40 and Aβ42 were calculated according to the standard curves of Aβ40 and Aβ42, respectively. In the end, the concentrations of Aβ40 and Aβ42 were adjusted by the total protein concentration, so as to obtain the final concentration.

[2] = test system: Aβ42; assay: Aβ42 content in culture supernatant of HEK293APP/sw overexpressing cells (ELISA kit); assay type: cell-based; details: compound 400 μM, 24 hours, adjusted by total protein concentration, blank control 11.08
Procedure: as §1, §2, §3

[3] = test system: APP/PSi 2×Tg mice; assay: Water maze behavior test; assay type: in vivo; details: 200 mg/kg oral gavage once a day, 8 weeks; for The number of crossing the platform: test day 6, model group 0.9 ± 0.6; for Time in the target quadrant: test day 6, model group 12.8 ± 2.9, in s
Description: Rodents in water have a strong incentive to escape from the water environment, and can escape from the water environment in the fastest and most direct way. The process of learning to escape from the water environment reflects the learning ability of the animals. Spatial positioning according to the surrounding environment and purposefully swimming to a safe place in the water (such as a platform) can reflect the spatial learning and memory ability of the animals.
The test animals were APP/PSi 2×Tg mice (C57BL/6 wild-type mice as the blank control). Mice of 6-8 months old, weighing 20-40 g, were purchased from The Jackson laboratory.
APP/PSi mice are APP/PSi di-transgenic Alzheimer's disease (2×Tg-AD) model mice, and the appearance of deposition of Aβ is earlier than the pathological changes of tau protein for several months, which can more truly simulate the clinical process and pathological changes of Alzheimer's disease.
Preparation of 0.7% CMC-Na: 0.7 g CMC-Na was added with a proper amount of water, heated for dissolution, left for cooling to room temperature, diluted to 100 mL, and stored at 4° C.
Preparation of BTMP: 100 mg of BTMP was added to 10 mL of 0.7% CMC-Na to prepare a 10 mg/mL suspension for use.
Preparation of test compound and comparative compound 1: 100 mg of the compound to be tested was weighted and added to 10 mL of 0.7% CMC-Na to prepare a 10 mg/mL suspension for use.
The laboratory mice were randomly divided into groups (9 or 10 mice per group). Mice in each group were administrated at a dosage of 0.2 mL/10 g body weight by oral gavage once a day for eight weeks.
The mice in the blank control group, model group and test group were orally administrated for 8 consecutive weeks according to the above administration dosage/specification. The water maze training and test were started in the last week of administration. The water maze training and test lasted for six days, with a training period of five days and a testing period of one day. In addition, during the training and testing period of water maze (6 days in total), the indoor conditions such as lighting etc. were kept consistent, the room was kept quiet, and the interference from the environment and personnel was excluded.
2.1. Preparation before the test: a proper amount of water was put into the water maze pool with the water temperature being kept at 22±3° C. The platform was placed in a fixed position (target quadrant) and 1 cm below the water surface, and titanium dioxide was added until the water became white, so that the platform could not be seen clearly.
2.2. Training period (days 1 to 5): on each day, before the first quadrant training, each mouse was placed on the platform for 15 s (to increase the mice's sense of security on the platform), and then the mouse was put into the pool (with its head facing the pool wall) from the quadrant where the platform located, and the swimming time was set as 60 s. If the mouse found the platform within 60 s and stayed for 5 s, it was regarded as the platform being found successfully. If the mouse could not find the platform, then the time was recorded as 60 s. The mouse was guided to the platform and stayed for 20 s, the mouse was then taken out, and the quadrant training for this mouse was ended.
After the first quadrant training, the mouse was trained in the remaining three quadrants sequentially, where it is not necessary to place the mouse on the platform for 15 s before training. The training of each mouse in every two quadrants was conducted at an interval of 10-15 minute. In this way, the training was performed continuously for 5 days.
2.3. Testing period (day 6): 24 hours after the last training, the platform was removed, and the mouse was dropped at the position opposite to the quadrant where the platform previously located (i.e., the position furthest away from the platform). […]

[4] = Pharmacokinetic study, brain distribution test (TM in brain and whole blood); assay type: in vivo, SD rats; details: single gavage to rats, trapezoidal method, calculated after deducting the concentration at time zero
Procedure: The SD rats used in this test were purchased from Zhejiang Charles rive Laboratory Animal Co., Ltd. Both male and female rats of SPF grade weighting about 250 g were used.
Preparation of the test article: a proper amount of test article was weighed and ground as fine powder in a mortar. A certain amount of the vehicle was added to a proper container, and then the ground test article was added to the container under magnetic stirring. The mixture was stirred until the appearance is uniform.
The male SD rats were divided into three groups (16 rats in each group) (4 animals were sacrificed at 4 time points). […] The animals were sacrificed at 5 min, 1 h, 3 h, and 9 h after the administration. The brain was taken out immediately after sacrifice, rinsed with ice-cold water and rinsed. 50 mg of the brain tissue was weighed, added to 0.45 mL of 100 mM dipotassium hydrogen phosphate buffer (pH=5.0) and homogenized. Blood samples were taken simultaneously and anticoagulated with EDTA. After collection, blood samples were placed on ice. 150 μL of whole blood was taken and 150 μL of 5.2% perchloric acid was added to determine TM. Another 4 animals were gavage administered with normal saline for the determination of endogenous TM concentration. All samples were frozen and stored in a −80° C. refrigerator.
The concentrations of TM and TDP in the samples were determined by HPLC-FLD.
The non-compartment model of the DAS software was used to calculate the pharmacokinetic parameters of TM and TDP in blood of rats after administration. The concentration of TM in the brain tissue after the drug administration in rats was measured, and the mean value and standard deviation were calculated. The area under the drug-time curve AUC was calculated using the trapezoidal method.

[5] = test day 6, model group 45.0 ± 8.8, 200 mg/kg

Row | SMILES | The content of Aβ40 [1] | The content of Aβ42 [2] | The number of crossing the platform [3] | Time in the target quadrant [3] | Latency period ([3]; test day 6, model group 45.0 ± 8.8) | Latency period [3, 5] | AUC of TM in the brain [4]
1 | C/C(=C(\CCOP(=O)(O)O)SC(=O)c1cc2ccccc2o1)N(C=O)Cc1cnc(C)nc1N [Compound 13, (Z)—S-(2-(N-((4-amino-2-methylpyrimidin-5-yl)methyl)formamido)-5-(phosphonooxy)pent-2-en-3-yl) benzofuran-2-carbothioate] | 43.76 pmol/L | 7.21 pmol/L | – | – | – | – | –
2 | COc1ccc2oc(C(=O)S/C(CCOP(=O)(O)O)=C(/C)N(C=O)Cc3cnc(C)nc3N)cc2c1 [Compound 8, (Z)—S-(2-(N-((4-amino-2-methylpyrimidin-5-yl)methyl)formamido)-5-(phosphonooxy)pent-2-en-3-yl) 5-methoxybenzofuran-2-carbothioate] | 60.96 pmol/L | 2.31 pmol/L | – | – | – | – | –
3 | C/C(=C(\CCOP(=O)(O)O)SC(=O)OCCc1ccccc1)N(C=O)Cc1cnc(C)nc1N [Compound 5, (Z)—S-(2-(N-((4-amino-2-methylpyrimidin-5-yl)methyl)formamido)-5-(phosphonooxy)pent-2-en-3-yl) O-phenethyl carbonothioate] | 48.94 pmol/L | 4.92 pmol/L | 2.2 ± 0.7 | 17.7 ± 2.6 | 25.0 ± 2.2 s | – | –
4 | C/C(=C(\CCOP(=O)(O)O)SC(=O)C(C)C)N(C=O)Cc1cnc(C)nc1N [Comparative compound 1, reference compound] | – | – | 2.1 ± 0.6 | 18.1 ± 2.8 | – | 27.0 ± 1.3 s | –
5 | CCCCC(CC)C(=O)S/C(CCOP(=O)(O)O)=C(/C)N(C=O)Cc1cnc(C)nc1N (stereo not drawn) [Comparative compound 2, reference compound] | – | – | – | – | – | – | 555.9 ng·h/g
6 | C/C(=C(\CCOP(=O)(O)O)SC(=O)c1ccccc1)N(C=O)Cc1cnc(C)nc1N [BTMP, benfotiamine, reference compound] | – | – | 2.1 ± 0.6 | 18.0 ± 3.5 | – | 27.3 ± 1.6 s | 739.9 ng·h/g
7 | C/C(=C(\CCOP(=O)(O)O)SC(=O)c1ccc(Cl)s1)N(C=O)Cc1cnc(C)nc1N [Compound 7, (Z)—S-(2-(N-((4-amino-2-methylpyrimidin-5-yl)methyl)formamido)-5-(phosphonooxy)pent-2-en-3-yl) 5-chlorothiophene-2-carbothioate] | 35.93 pmol/L | 5.03 pmol/L | – | – | – | – | –
8 | C/C(=C(\CCOP(=O)(O)O)SC(=O)c1ccoc1)N(C=O)Cc1cnc(C)nc1N [Compound 15, (Z)—S-(2-(N-((4-amino-2-methylpyrimidin-5-yl)methyl)formamido)-5-(phosphonooxy)pent-2-en-3-yl) furan-3-carbothioate] | 37.88 pmol/L | 10.52 pmol/L | – | – | – | – | –
